According to publication PMC6691816, “Discovery of aminopyridine-containing spiro derivatives as EGFR mutations inhibitors” (Journal of Enzyme Inhibition and Medicinal Chemistry, 2019):

Assays:
[1] = molecular target: T1, EGF-R wt (Homo sapiens, UniProt P00533); test: EGFR-wt protein kinase assay (33PanQinase), single concentration; assay type: biochemical; conditions: 0.5 μM (5 × 10^−7 M), singlicate, % of control activity; for remaining activity at 0.5 µM: read-out: Residual activity under 0.5 μM drug concentration (%) EGF-R wt
T1 construct: purchased ProQinase GmbH
Method: (§1) The inhibitory profile of 16 compounds was determined using two protein kinases. The compounds were tested at a concentration of 5 × 1 0^−7 M, in singlicate. The compounds were solved and diluted to 5 × 10^−5 M stock solutions in 100% DMSO according to the customer-filled CSF. 10 μL of each of the stock solutions were transferred into […] of a 96-well, Column 1 and 2 of the plate were filled with 10 μL100% DMSO. The plate is in the following referred to as “copy plate”. In the process, 90 μL H2O were added to each well of the copy plate. To minimize potential compound precipitation, the H2O was added to each well only a few minutes before the transfer of the compound solutions into the assay plates. The plate was shaken thoroughly, resulting in a “compound dilution plate” with a compound concentration of 5 × 10^−6 M/10% DMSO. This plate was used for the transfer of 5 μL compound solution into the assay plates. The final volume of the assay was 50 μL. All compounds were tested at 5 × 1 0^−7 M in singlicate. The final DMSO concentration in the reaction cocktails was 1% in all cases. The compound dilution plate was disposed.
(§2) A radiometric protein kinase assay (33PanQinase® Activity Assay) was used for measuring the kinase activity of the two protein kinases. All kinase assays were performed in 96-well FlashPlatesTM from PerkinElmer (Boston, MA, USA) in a 50 μL reaction volume. The reaction cocktail was pipetted in 4 steps in the following order: 20 μL of assay buffer, 5 μL of ATP solution (in H2O), 5 μL of test compound (in 10% DMSO), 20 μL enzyme/subtrate mix. The assay for both protein kinases contained 70 mM HEPES-NaOH pH 7.5, 3 mM MgCl2, 3 mM MnCl2, 3 μM Na-orthovanadate, 1.2 mM DTT, ATP. The assay for ERBB2 additionally contained 50 μg/mLPEG20000. The reaction cocktails were incubated at 30 °C for 60 min. The reaction was stopped with 50 μL of 2% (v/v) H3PO4, plates were aspirated and washed two times with 200 μL 0.9% (w/v) NaCl. Incorporation of 33Pi was determined with a microplate scintillation counter (Microbeta, Wallac). All assays were performed with a BeckmanCoulter/SAGIAN™Core System. The median value of the counts in column 1 (n = 8) of each assay plate was defined as “low control”. This value reflects unspecific binding of radioactivity to the plate in the absence of a protein kinase but in the presence of the substrate. The median value of the counts in column 2 of each assay plate (n = 8) was taken as the “high control”. As part of the data evaluation the low control value from a particular plate was subtracted from the high control value as well as from all 80 “compound values” of the corresponding plate. The residual activity (in %) for each well of a particular plate was calculated by using the following formula: Res. Activity (%) = 100 × [(cpm of compound – low control)/(high control − low control)]

[2] = molecular target: T2, HER2 (Homo sapiens, UniProt P04626); test: HER2 protein kinase assay (33PanQinase), single concentration; assay type: biochemical; conditions: 0.5 μM (5 × 10^−7 M), singlicate, % of control activity; for remaining activity at 0.5 µM: read-out: Residual activity under 0.5 μM drug concentration (%) HER2
T2 construct: purchased ProQinase GmbH
Method: as §1, §2

Molecule	remaining activity at 0.5 µM [1]	remaining activity at 0.5 µM [2]	Residual activity under 0.5 μM drug concentration (%) EGF-R wt [1]	Residual activity under 0.5 μM drug concentration (%) HER2 [2]
C=CC(=O)N1CC2(CCN(C)CC2)c2cc(OC)c(Nc3ncc(C#N)c(Nc4ccc(OCc5ccccc5)c(Cl)c4)n3)cc21 [Compound A3, 4-{[4-(benzyloxy)-3-chlorophenyl]amino}-2-{[5-methoxy-1′-methyl-1-(prop-2-enoyl)-1,2-dihydrospiro[indole-3,4′-piperidine]-6-yl]amino}pyrimidine-5-carbonitrile]	19%	12%		
C=CC(=O)N1CC2(CCN(C)CC2)c2cc(OC)c(Nc3ncc(C#N)c(Nc4cnn(Cc5ccccn5)c4)n3)cc21 [Compound A4, 2-{[5-methoxy-1′-methyl-1-(prop-2-enoyl)-1,2-dihydrospiro[indole-3,4′ -piperidine]-6-yl]amino}-4-{[1-(pyridin-2-ylmethyl)-1H-pyrazol-4-yl]amino}pyrimidine-5-carbonitrile]	20 to 60%	34%	27%	
COc1cc2c(cc1Nc1ncc(C#N)c(Nc3ccc(OCc4ccccn4)cc3)n1)N(C(=O)/C=C/CN(C)C)CC21CC1 [Compound B1, (2E)-4-{6′-[(5-cyano-4-{[4-(pyridin-2-ylmethoxy)phenyl]amino}pyrimidin-2-yl)amino]-5′-methoxyspiro[cyclopropane-1,3′-indole]-1′-yl}-1-(dimethylamino)-4-oxobut-2-en-2-yl]	92%	103%		
COc1cc2c(cc1Nc1ncc(C#N)c(Nc3ccc(OCc4ccccn4)c(Cl)c3)n1)N(C(=O)/C=C/CN(C)C)CC21CC1 [Compound B2, (2E)-4-{6′-[(4-{[3-chloro-4-(pyridin-2-ylmethoxy)phenyl]amino}-5-cyanopyrimidin-2-yl)amino]-5′-methoxyspiro[cyclopropane-1,3′-indole]-1′-yl}-1-(dimethylamino)-4-oxobut-2-en-2-yl]	97%	100%		
COc1cc2c(cc1Nc1ncc(C#N)c(Nc3ccc(OCc4ccccc4)c(Cl)c3)n1)N(C(=O)/C=C/CN(C)C)CC21CC1 [Compound B3, 4-{[4-(benzyloxy)-3-chlorophenyl]amino}-2-({1′-[(2E)-4-(dimethylamino)but-2-enoyl]-5′-methoxy-1′,2′-dihydrospiro[cyclopropane-1,3′-indole]-6′-yl}amino)pyrimidine-5-carbonitrile]	95%	102%		
C=CC(=O)N1CC2(CC2)c2cc(OC)c(Nc3ncc(C#N)c(Nc4ccc(OCc5ccccn5)cc4)n3)cc21 [Compound B4, 3-{6′-[(5-cyano-4-{[4-(pyridin-2-ylmethoxy)phenyl]amino}pyrimidin-2-yl)amino]-5′-methoxyspiro [cyclopropane-1, 3′-indole]-1′-yl}-3-oxoprop-1-en-2-yl]	87%	99%		
C=CC(=O)N1CC2(CC2)c2cc(OC)c(Nc3ncc(C#N)c(Nc4cnn(Cc5ccccn5)c4)n3)cc21 [Compound B7, 3-{6′-[(5-cyano-4-{[1-(pyridin-2-ylmethyl)pyrazol-4-yl]amino}pyrimidin-2-yl)amino]-5′-methoxyspiro[cyclopropane-1,3′-indole]-1′-yl}-3-oxoprop-1-en-2-yl]	89%	135%		
CCOc1cc2ncc(C#N)c(Nc3ccc(OCc4ccccn4)c(Cl)c3)c2cc1NC(=O)/C=C/CN(C)C [Neratinib, reference compound]		6%		
(2E)-4-{6′-[(5-cyano-4-{[1-(pyridin-2-ylmethyl)pyrazol-4-yl]amino} pyrimidin-2-yl)amino]-5′-methoxyspiro[cyclopropane-1,3′-indole]-1′-yl}-1-(dimethylamino)-4-oxobut-2-en-2-yl trifluoroacetate [Compound B6]			94%	113%

More lines, main results first:

remaining activity at 0.5 µM [1]	remaining activity at 0.5 µM [2]	Molecule	Residual activity under 0.5 μM drug concentration (%) EGF-R wt [1]	Residual activity under 0.5 μM drug concentration (%) HER2 [2]
86%	100%	COc1cc2c(cc1Nc1ncc(C#N)c(Nc3ccc(OCc4ccccn4)cc3)n1)N(C(=O)/C=C/CN(C)C)CC1(CC1)O2 [Compound C1, (2E)-4-{6-[(5-cyano-4-{[4-(pyridin-2-ylmethoxy)phenyl]amino}pyrimidin-2-yl)amino]-7-methoxyspiro[1,4-benzoxazine-2,1′-cyclopropane]-4-yl}-1-(dimethylamino)-4-oxobut-2-en-2-yl]		
76%	108%	COc1cc2c(cc1Nc1ncc(C#N)c(Nc3ccc(OCc4ccccn4)c(Cl)c3)n1)N(C(=O)/C=C/CN(C)C)CC1(CC1)O2 [Compound C2, (2E)-4-{6-[(4-{[3-chloro-4-(pyridin-2-ylmethoxy)phenyl]amino}-5-cyanopyrimidin-2-yl)amino]-7-methoxyspiro[1,4-benzoxazine-2,1′-cyclopropane]-4-yl}-1-(dimethylamino)-4-oxobut-2-en-2-yl]		
79%	111%	COc1cc2c(cc1Nc1ncc(C#N)c(Nc3ccc(OCc4ccccc4)c(Cl)c3)n1)N(C(=O)/C=C/CN(C)C)CC1(CC1)O2 [Compound C3, (2E)-4-{6-[(4-{[4-(benzyloxy)-3-chlorophenyl]amino}-5-cyanopyrimidin-2-yl)amino]-7-methoxyspiro[1,4-benzoxazine-2,1′-cyclopropane]-4-yl}-1-(dimethylamino)-4-oxobut-2-en-2-yl]		
85%	100%	COc1cc2c(cc1Nc1ncc(C#N)c(Nc3cnn(Cc4ccccn4)c3)n1)N(C(=O)/C=C/CN(C)C)CC1(CC1)O2 [Compound C4, (2E)-4-{6-[(5-cyano-4-{[1-(pyridin-2-ylmethyl)pyrazol-4-yl]amino}pyrimidin-2-yl)amino]-7-methoxyspiro[1,4-benzoxazine-2,1′-cyclopropane]-4-yl}-1-(dimethylamino)-4-oxobut-2-en-2-yl]		
